The source made the active and inactive calls. Non-standard residues stand in square brackets, D forms with d. Residues, ends and D or L forms follow the SMILES beside them.
What was measured:
P388/ADR = assay: cells; assay type: functional; conditions: Mus musculus
P388 = assay: cells; assay type: functional; conditions: Mus musculus
SN12K1 = assay: cells; assay type: functional; conditions: Homo sapiens
[1] = target: T1, Tyrosine-protein phosphatase non-receptor type 5 (Homo sapiens, UniProt P54829); assay: STEP phosphatase inhibitors, confirmation, biochemical, fluorescence intensity, uHTS hits (AID 602372); assay type: functional; conditions: read-out: IC50_Mean
T1 sequence (P54829 whole entry): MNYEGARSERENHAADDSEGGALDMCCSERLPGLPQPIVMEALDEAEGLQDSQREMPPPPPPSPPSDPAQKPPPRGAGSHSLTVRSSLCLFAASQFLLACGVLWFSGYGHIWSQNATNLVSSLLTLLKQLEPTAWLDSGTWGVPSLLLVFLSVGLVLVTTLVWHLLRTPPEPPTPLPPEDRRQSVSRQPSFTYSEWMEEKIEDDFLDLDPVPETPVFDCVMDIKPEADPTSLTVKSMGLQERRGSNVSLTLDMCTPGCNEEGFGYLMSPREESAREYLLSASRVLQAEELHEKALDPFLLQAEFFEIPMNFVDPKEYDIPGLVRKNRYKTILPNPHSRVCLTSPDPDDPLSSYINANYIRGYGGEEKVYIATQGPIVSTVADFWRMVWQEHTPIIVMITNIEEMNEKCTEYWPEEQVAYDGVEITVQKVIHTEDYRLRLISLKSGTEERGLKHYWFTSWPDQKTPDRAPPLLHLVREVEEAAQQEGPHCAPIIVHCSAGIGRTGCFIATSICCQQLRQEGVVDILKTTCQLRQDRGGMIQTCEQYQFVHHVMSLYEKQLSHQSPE

[2] = target: Glucose-6-phosphate 1-dehydrogenase (Homo sapiens, UniProt P11413); assay: human G6PD enzyme inhibitors, dose response, selectivity assay for P. falciparum G6PD inhibitor project, biochemical, fluorescence (AID 504792); assay type: functional
[3] = target: Dual specificity protein phosphatase 3 (Homo sapiens, UniProt P51452); assay: VHR phosphatase inhibition, dose response, selectivity assay for STEP inhibitor project, biochemical (AID 602374); assay type: functional; conditions: read-out: IC50_Mean
[4] = target: T2, Tyrosine-protein phosphatase non-receptor type 11 (Homo sapiens, UniProt Q06124); assay: SHP2 phosphatase inhibition, dose response, selectivity assay for STEP inhibitor project, biochemical (AID 602367); assay type: functional; conditions: read-out: IC50_Mean
T2 sequence (Q06124 whole entry): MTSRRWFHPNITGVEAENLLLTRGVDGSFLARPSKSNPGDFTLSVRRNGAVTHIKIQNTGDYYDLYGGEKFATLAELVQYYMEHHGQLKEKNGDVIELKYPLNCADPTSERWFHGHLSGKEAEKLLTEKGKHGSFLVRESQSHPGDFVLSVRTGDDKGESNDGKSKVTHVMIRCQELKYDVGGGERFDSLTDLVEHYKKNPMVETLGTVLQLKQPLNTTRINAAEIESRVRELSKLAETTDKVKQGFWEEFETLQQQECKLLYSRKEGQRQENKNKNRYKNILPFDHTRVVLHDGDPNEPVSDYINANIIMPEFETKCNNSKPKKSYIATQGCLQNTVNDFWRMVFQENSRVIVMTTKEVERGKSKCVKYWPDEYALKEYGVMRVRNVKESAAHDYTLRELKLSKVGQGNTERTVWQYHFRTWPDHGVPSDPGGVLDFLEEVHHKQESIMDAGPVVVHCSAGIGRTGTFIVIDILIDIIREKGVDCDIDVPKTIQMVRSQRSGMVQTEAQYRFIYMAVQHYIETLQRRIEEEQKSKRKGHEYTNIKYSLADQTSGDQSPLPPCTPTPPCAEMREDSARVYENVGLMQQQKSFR

INS1 = assay: beta cell apoptosis inhibitors, cytokine rescue, dose response, luminescence, retest (AID 449756); assay type: functional, cell-based; conditions: Rattus norvegicus;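 also: cell death triggered by IL-1 beta plus TNF-alpha plus IFN-gamma mixture; protective hits raise ATP signal compared with cytokine alone wells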
Beta-galactosidase = Beta-galactosidase (Escherichia coli, UniProt Q8VNN2); assay: PubChem AID 485352; assay type: functional
[5] = target: T3, Type-1 angiotensin II receptor (Homo sapiens, UniProt P30556); assay: AT1 receptor antagonists, dose response, selectivity assay for APJ receptor antagonist project, cell-based, uHTS hits (AID 463214); assay type: functional;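 also: antagonist potency against angiotensin II stimulated AT1 response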
T3 sequence (P30556 whole entry): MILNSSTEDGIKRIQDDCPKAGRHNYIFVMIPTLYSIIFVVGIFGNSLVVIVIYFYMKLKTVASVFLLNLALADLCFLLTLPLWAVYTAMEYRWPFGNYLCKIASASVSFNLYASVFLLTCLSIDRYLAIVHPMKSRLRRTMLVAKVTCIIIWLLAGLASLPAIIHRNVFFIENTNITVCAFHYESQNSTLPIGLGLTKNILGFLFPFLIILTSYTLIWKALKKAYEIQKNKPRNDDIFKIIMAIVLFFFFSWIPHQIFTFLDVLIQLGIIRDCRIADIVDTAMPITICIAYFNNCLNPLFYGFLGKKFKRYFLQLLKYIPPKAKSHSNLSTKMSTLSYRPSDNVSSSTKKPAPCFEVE

[6] = target: T4, Heat shock factor protein 1 (Mus musculus, UniProt P38532); assay: inhibition of MG132-induced HSE-luciferase signal, confirmation, cell-based, NIH3T3, luminescence, dose retest (AID 2382); assay type: functional;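 also: NIH3T3 fibroblasts with HSF1-driven luciferase reporter stressed by proteasome inhibitor MG132; luminescence from HSF1-driven luciferase expression after 8 hours of MG132 stress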
T4 sequence (P38532 whole entry): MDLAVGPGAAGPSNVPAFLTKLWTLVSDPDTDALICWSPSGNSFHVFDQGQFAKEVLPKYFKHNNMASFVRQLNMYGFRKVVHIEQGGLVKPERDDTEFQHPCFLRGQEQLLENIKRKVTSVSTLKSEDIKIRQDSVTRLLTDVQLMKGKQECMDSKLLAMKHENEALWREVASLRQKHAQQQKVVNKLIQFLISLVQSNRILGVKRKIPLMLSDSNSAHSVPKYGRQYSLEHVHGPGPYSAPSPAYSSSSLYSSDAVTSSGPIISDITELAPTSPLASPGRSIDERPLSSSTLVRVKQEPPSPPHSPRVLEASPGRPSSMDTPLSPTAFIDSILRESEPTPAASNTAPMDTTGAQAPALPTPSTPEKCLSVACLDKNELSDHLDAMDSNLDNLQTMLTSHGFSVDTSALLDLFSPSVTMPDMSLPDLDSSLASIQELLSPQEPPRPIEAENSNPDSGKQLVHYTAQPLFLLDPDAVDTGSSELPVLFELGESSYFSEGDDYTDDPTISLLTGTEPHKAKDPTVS

Tumor necrosis factor = Tumor necrosis factor (Homo sapiens, UniProt P01375); assay: TNFa-triggered NF-kB activation inhibitors, SAR follow-up, cell-based, revised (AID 2337); assay type: functional
[7] = inhibitors of SNCA 5'UTR-driven reporter translation, confirmation, H4 neuroglioma cells, luminescence (AID 1988); assay type: functional, cell-based
HEK293 [8] = assay: NOD2 signaling inhibitors in MDP-stimulated cells, cell-based, uHTS, luminescence (AID 2001); assay type: functional; conditions: Homo sapiens
HEK293 [9] = assay: cells; assay type: functional, cell-based; conditions: Homo sapiens
HEK293 [10] = assay: NOD1 signaling inhibitors, primary screen, cell-based, luminescence, uHTS (AID 1578); assay type: functional; conditions: Homo sapiens
[11] = inhibitors of firefly luciferase expression or activity, dose response, H4 neuroglioma cells, luminescence (AID 1990); assay type: functional, cell-based
Jurkat = assay: antigen receptor-induced NF-kB inhibitors, dose response, Jurkat, luciferase reporter, luminescence, B- and T-cell (AID 489004); assay type: functional, cell-based; conditions: Homo sapiens;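 also: NF-kB luciferase reporter Jurkat cells stimulated with PMA plus ionomycin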
[12] = cytotoxicity in HEK-293T NF-kB-Luc cells, dose response, cytotoxicity control for B/T-cell NF-kB inhibitor project, cell-based, uHTS hits (AID 489019); assay type: functional;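 also: IC50 reflects cytotoxicity as loss of cell viability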
HEK293 [13] = assay: cells; assay type: functional, cell-based; conditions: Homo sapiens; remark: listed apart in the source
[14] = control 3'UTR Renilla luciferase suppression, dose response, counter-screen for Shn3 inhibitor project, cell-based, Clone20-Shn3RL, cherry-picked (AID 624133); assay type: functional
[15] = HepG2 cell cytotoxicity, dose response, cytotoxicity control for Shn3 inhibitor project, CellTiter-Glo, cherry-picked (AID 624134); assay type: functional, cell-based
[16] = Shn3 3'UTR reporter inhibitors, dose response, cell-based, Clone20 osteoblasts, firefly luciferase, cherry-picked (AID 624132); assay type: functional;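 also: firefly luciferase luminescence from reporter carrying the Shn3 3'UTR in osteoblasts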
[17] = target: T5, Nucleotide-binding oligomerization domain-containing protein 1 (Homo sapiens, UniProt Q9Y239); assay: NOD1 signaling inhibitors, SAR follow-up, revised (AID 2333); assay type: functional
T5 sequence (Q9Y239 whole entry): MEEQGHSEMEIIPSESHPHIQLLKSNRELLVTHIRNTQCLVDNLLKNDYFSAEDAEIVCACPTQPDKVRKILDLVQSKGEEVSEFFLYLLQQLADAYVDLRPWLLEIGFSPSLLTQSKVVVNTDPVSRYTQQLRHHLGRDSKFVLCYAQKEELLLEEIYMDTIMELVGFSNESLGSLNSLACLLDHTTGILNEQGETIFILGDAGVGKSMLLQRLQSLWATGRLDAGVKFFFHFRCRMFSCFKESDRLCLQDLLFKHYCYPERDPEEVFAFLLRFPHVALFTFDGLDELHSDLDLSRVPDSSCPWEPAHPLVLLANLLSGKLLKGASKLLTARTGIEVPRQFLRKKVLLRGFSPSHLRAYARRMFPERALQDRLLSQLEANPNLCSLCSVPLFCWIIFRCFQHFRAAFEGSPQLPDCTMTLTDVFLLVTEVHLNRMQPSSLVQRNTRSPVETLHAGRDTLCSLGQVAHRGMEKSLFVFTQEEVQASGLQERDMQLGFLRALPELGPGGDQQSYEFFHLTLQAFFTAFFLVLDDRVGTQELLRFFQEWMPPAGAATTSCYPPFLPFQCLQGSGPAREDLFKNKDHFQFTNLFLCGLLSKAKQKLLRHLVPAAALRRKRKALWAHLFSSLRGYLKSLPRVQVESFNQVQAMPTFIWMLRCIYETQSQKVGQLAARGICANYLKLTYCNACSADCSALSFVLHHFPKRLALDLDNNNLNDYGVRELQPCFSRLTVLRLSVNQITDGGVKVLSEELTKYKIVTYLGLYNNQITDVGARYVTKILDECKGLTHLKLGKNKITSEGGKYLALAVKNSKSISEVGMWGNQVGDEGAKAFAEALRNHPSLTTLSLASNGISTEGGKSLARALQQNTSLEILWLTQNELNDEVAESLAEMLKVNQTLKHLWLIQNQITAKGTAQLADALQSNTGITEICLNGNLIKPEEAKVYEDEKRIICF

[18] = Luminescence Cell-Based Dose Response HTS to Identify Inhibitors of 5'UTR Stem-Loop Driven Prion Protein mRNA Translation in H4 Neuroglioblastoma Cells. [Related pubchem assays: 1827 (Project Summary), 1813 (Primary HTS)]; assay type: functional
HEK293 [19] = assay: cells; conditions: Homo sapiens

Beta-galactosidase, sequence (Q8VNN2 whole entry): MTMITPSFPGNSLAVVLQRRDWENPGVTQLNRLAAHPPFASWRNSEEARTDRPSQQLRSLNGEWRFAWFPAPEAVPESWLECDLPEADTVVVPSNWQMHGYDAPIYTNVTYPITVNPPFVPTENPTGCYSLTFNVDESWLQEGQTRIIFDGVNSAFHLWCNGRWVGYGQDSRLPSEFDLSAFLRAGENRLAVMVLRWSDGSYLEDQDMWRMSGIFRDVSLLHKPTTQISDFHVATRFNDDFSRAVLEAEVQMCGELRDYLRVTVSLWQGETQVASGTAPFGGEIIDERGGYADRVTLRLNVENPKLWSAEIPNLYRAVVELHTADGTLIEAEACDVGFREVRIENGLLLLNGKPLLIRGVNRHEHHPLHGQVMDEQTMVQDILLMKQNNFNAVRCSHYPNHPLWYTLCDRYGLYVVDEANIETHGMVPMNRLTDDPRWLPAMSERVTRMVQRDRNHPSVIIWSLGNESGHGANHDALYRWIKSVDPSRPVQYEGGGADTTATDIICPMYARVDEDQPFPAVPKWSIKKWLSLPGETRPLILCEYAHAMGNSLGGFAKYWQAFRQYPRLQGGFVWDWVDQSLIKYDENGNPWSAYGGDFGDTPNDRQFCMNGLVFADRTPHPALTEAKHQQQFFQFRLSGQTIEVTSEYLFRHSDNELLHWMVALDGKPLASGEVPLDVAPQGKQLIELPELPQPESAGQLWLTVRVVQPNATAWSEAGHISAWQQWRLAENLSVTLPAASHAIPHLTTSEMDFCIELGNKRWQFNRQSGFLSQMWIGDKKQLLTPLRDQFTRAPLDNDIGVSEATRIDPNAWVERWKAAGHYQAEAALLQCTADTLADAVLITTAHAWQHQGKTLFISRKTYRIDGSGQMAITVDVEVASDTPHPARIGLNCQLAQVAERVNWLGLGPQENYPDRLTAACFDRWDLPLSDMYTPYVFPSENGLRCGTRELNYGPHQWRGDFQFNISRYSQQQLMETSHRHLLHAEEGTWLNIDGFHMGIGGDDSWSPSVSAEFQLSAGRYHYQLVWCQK
Dual specificity protein phosphatase 3, sequence (P51452 whole entry): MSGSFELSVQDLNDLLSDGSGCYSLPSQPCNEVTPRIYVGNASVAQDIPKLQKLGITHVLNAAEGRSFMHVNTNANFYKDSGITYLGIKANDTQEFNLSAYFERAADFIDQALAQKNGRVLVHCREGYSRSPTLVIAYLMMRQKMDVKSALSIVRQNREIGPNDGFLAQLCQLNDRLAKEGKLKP
Tumor necrosis factor, sequence (P01375 whole entry): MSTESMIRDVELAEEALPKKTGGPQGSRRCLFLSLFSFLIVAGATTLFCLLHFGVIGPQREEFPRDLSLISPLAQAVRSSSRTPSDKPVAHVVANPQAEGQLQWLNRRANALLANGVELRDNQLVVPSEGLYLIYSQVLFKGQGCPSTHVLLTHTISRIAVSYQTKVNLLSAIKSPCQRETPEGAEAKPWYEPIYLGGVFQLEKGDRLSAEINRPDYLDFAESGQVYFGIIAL
Glucose-6-phosphate 1-dehydrogenase, sequence (P11413 whole entry): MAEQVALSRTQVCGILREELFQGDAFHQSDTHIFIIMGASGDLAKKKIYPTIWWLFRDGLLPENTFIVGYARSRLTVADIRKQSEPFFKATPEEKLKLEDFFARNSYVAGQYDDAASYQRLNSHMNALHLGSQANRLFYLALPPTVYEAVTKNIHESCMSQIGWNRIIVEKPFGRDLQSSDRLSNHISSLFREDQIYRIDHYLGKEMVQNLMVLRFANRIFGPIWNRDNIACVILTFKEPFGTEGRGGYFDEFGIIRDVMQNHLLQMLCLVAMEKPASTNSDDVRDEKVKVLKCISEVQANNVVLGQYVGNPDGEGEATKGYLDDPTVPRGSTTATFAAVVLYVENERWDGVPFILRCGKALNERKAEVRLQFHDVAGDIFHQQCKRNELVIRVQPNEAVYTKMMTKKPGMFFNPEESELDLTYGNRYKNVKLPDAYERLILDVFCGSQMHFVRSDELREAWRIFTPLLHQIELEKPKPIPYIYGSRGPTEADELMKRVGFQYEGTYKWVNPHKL

## CC(C)C[C@H](NC(=O)[C@H](CC(C)C)NC(=O)[C@@H](Cc1c[nH]c2ccccc12)NC(=O)[C@H](Cc1ccccc1)NC(=O)[C@@H](Cc1c[nH]c2ccccc12)NC(=O)[C@H](CCC(N)=O)NC(=O)[C@H](CCC(N)=O)NC(=O)[C@H]1CCCN1C(=O)[C@@H](N)CCCCN)C(N)=O (H-K[dP]QQ[dW]F[dW]LL-NH2)
P388/ADR
  GI50: > 100 µM (inactive)
P388
  GI50: > 100 µM (inactive)
SN12K1
  GI50: > 100 µM (inactive)

## CN1CCN(C(=S)c2ccc(Br)cc2)CC1
[1]
  IC50: 30.8 µM (inactive)
[2]
  IC50: > 80 µM (inactive)
[3]
  IC50: 1.14 µM (active)
[4]
  IC50: 1.51 µM (active)

## NNc1nc(-c2ccccc2)cc(-c2ccccc2O)n1
INS1
  AC50: 1.7 µM (active)
Beta-galactosidase
  EC50: > 40 µM (inactive)
[5]
  IC50: 4.2 µM (active)

## Cc1ccc(NNC(=O)c2c(C)noc2C)cc1Cl
Beta-galactosidase
  EC50: > 40 µM (inactive)
[5]
  IC50: 5.22 µM (active)

## CN(C)CCNc1c2ccccc2c2c3c(cccc13)C(=O)N(CCN(C)C)C2=O
P388/ADR
  GI50: 0.218 µM (active)
P388
  GI50: 0.0723 µM (active)
SN12K1
  GI50: 0.31 µM (active)

## CC(Nc1ncnc2sccc12)c1ccccc1 (centres undefined)
[6]
  EC50: > 195 µM (not active)
Tumor necrosis factor
  IC50: 2.35 µM (active)
[7]
  EC50: > 120 µM (not active)
HEK293 [8]
  IC50: 3.62 µM (active)
HEK293 [9]
  IC50: 13.5 µM (active)
HEK293 [10]
  EC50: 1.36 µM (active)
[11]
  EC50: > 120 µM (not active)
Jurkat
  IC50: > 80 µM (inactive)
[12]
  IC50: > 80 µM (inactive)
HEK293 [13]
  IC50: 2.67 µM (active)
[14]
  AC50: 0.606 µM (active)
[15]
  AC50: 1.71 µM (active)
[16]
  AC50: 0.505 µM (active)
[17]
  IC50: 1.55 µM (active)
[18]
  EC50: > 120 µM (not active)
HEK293 [19]
  IC50: > 20 µM (inactive)

## CCCCCCCCCCCC[C@@H](O)[C@H]1CC[C@H]([C@H](O)CCCC[C@H](O)CCCCC[C@@H](O)CC2=C[C@H](C)OC2=O)O1
P388/ADR
  GI50: 0.106 µM (active)
P388
  GI50: < 0.0366 µM (active)
SN12K1
  GI50: < 0.01 µM (active)

## CCCCN(CC)Cc1ccc(CN=C(S)Nc2c(C)cc(C)cc2C)o1
[1]
  IC50: 45.9 µM (inactive)
[3]
  IC50: 2.45 µM (active)
[4]
  IC50: 4.52 µM (active)

## Cc1ccc(C(=O)COC(=O)c2ccncc2)cc1[N+](=O)[O-]
Beta-galactosidase
  EC50: > 40 µM (inactive)
[5]
  IC50: 20 µM (active)

## CC1NC(=O)CC(c2ccccc2)N(N=O)C1c1ccccc1 (centres undefined)
P388/ADR
  GI50: 15.3 µM (inactive)
P388
  GI50: 10.3 µM (inactive)
SN12K1
  GI50: 21.6 µM (inactive)

## Cc1cc(C)nc(NNS(=O)(=O)c2ccc(Cl)cc2)n1
Beta-galactosidase
  EC50: > 40 µM (inactive)
[5]
  IC50: > 40 µM (not active)

From ChEMBL document CHEMBL1201862, “PubChem BioAssay data set” (2004)
